Test results reported in ChEMBL document CHEMBL2040793, “Thieno[3,2-c]pyran-4-one based novel small molecules: their synthesis, crystal structure analysis and in vitro evaluation as potential anticancer agents” (Bioorg Med Chem Lett, 2012).

What was measured:
K562 [1] = assay: Cytotoxicity against human K562 cells after 24 hrs by MTT assay; format: functional, cell-based; settings: K562, 24 h
HepG2 [2] = assay: Growth inhibition of human HepG2 cells at 10 uM after 24 hrs by MTT assay; format: functional; settings: HepG2, 24 h, read-out: GI
K562 [3] = assay: Growth inhibition of human K562 cells at 10 uM after 24 hrs by MTT assay; format: functional; settings: K562, 24 h, read-out: GI
HepG2 [4] = assay: Ratio of doxorubicin IC50 to compound IC50 for human HepG2 cells; format: functional
Saccharomyces cerevisiae = assay: Inhibition of yeast SIRT2 assessed as derepression of Ura3 gene at 50 uM in presence of 5-fluoroorotic acid
MDA-MB-231 = assay: Growth inhibition of human MDA-MB-231 cells at 10 uM after 24 hrs by MTT assay; format: functional; settings: MDA-MB-231, 24 h, read-out: GI
[5] = Growth inhibition of human HEK293 cells at 10 uM after 24 hrs by MTT assay; format: cell-based; settings: read-out: GI
HepG2 [6] = assay: Cytotoxicity against human HepG2 cells after 24 hrs by MTT assay; format: functional, cell-based; settings: HepG2, 24 h

inhibition (Saccharomyces cerevisiae) | Compound | IC50 (K562 [1]) | inhibition of growth at 10 µM (HepG2 [2]) | inhibition of growth at 10 µM (K562 [3]) | Ratio IC50 (HepG2 [4]) | inhibition of growth at 10 µM (MDA-MB-231) | inhibition at 24 h, 10 µM [5] | IC50 (HepG2 [6])
30% | Cc1ccc(-c2oc(=O)c3c4c(sc3c2I)CCCC4)cc1 | 2330 nM | 68.2% | 64.2% | >2 | 32.5% | 0% | 2380 nM
 | CC(C)(C)OC(=O)N1CCc2c(sc3c(I)c(-c4ccccc4)oc(=O)c23)C1 |  | 15.5% | 8.34% |  | 27.5% | 9.03% | 
 | CC(C)(O)C#Cc1c(-c2ccccc2)oc(=O)c2c3c(sc12)CCCCC3 |  | 25% | 9.32% |  | 21.6% | 4.2% | 
 | O=c1oc(-c2ccccc2)c(-c2ccccc2)c2sc3c(c12)CCC3 |  | 13.4% | 26.7% |  | 12.4% | 4% | 
 | O=c1oc(-c2ccccc2)c(-c2ccc(O)cc2)c2sc3c(c12)CCCC3 |  | 23% | 9.85% |  | 22.9% | 0.5% | 
 | O=c1oc(-c2ccccc2)c(C#Cc2ccccc2)c2sc3c(c12)CCCCC3 |  | 20.1% | 13.9% |  | 34.7% | 1.7% | 
30% | CCCCC#Cc1c(-c2ccccc2)oc(=O)c2c3c(sc12)CCCCC3 | 2280 nM | 24.1% | 66.4% |  | 25.2% | 3.2% | 
 | O=c1oc(-c2ccccc2)c(I)c2sc3c(c12)CCCC3 |  | 0% | 38.1% |  | 22.7% | 0.6% | 
 | CCCCCC#Cc1c(-c2ccccc2)oc(=O)c2c3c(sc12)CCCCC3 |  | 24.8% | 12.3% |  | 41.9% | 0.44% | 
 | CCOC(=O)/C=C/c1c(-c2ccccc2)oc(=O)c2c3c(sc12)CCCCC3 |  | 12% | 27.4% |  | 42.6% | 1.11% | 
 | O=c1oc(-c2ccccc2)c(-c2ccccc2)c2sc3c(c12)CCCCC3 |  | 35.9% | 24% |  | 7.42% | 0.01% | 
 | Cc1ccc(NC(=O)c2ccc(CN3CCN(C)CC3)cc2)cc1Nc1nccc(-c2cccnc2)n1 [IMATINIB] | 100 nM |  |  |  |  |  | 
 | O=c1oc(-c2ccccc2)c(I)c2sc3c(c12)CCCCC3 |  | 12% | 30.3% |  | 40.1% | 0.23% | 
